Reference: publication PMC9030827, “In Vitro Effects of Mitochondria-Targeted Antioxidants in a Small-Cell Carcinoma of the Ovary of Hypercalcemic Type and in Type 1 and Type 2 Endometrial Cancer” (Biomedicines, 2022)
pEC50: −log10 of the molar value.

Legend:
Hec50co cells [1] = experiment: Neutral red (NR) cell viability assay; format: cell-based; settings: Homo sapiens
Procedure: (§1) Experiments were performed using the following cell lines: Ishikawa, Hec50co, COV434, and HFF-1. The Ishikawa cell line (RRID: CVCL_2529) was established from an endometrial adenocarcinoma. The Hec50co cell line (RRID: CVCL_4Y59) consists of poorly differentiated endometrial tumor cells isolated from a patient with advanced disease. Both the Ishikawa and Hec50co cell lines were kindly provided by Dr. Kim K. Leslie (The University of New Mexico Health Sciences Center, Albuquerque, NM, USA). COV434 (RRID: CVCL_2010) were initially isolated from a patient diagnosed with a granulosa cell tumor but were recently classified as cells from a small-cell carcinoma of the ovary, hypercalcemic type.The COV434 cells were purchased from the European Collection of Authenticated Cell Cultures (ECACC) (#07071909). HFF-1 (RRID: CVCL_3285) is an immortalized human foreskin fibroblasts cell line, obtained from the American Type Culture Collection (ATCC), which was used as control, as they are non-tumorous cells. The Ishikawa and Hec50co cells were maintained in Dulbecco’s Modified Eagle Medium/F12 (DMEM/F12) supplemented with 5% Foetal Bovine Serum (FBS). COV434 cells were maintained in DMEM/F12 supplemented with 10% FBS. HFF-1 were maintained in Roswell Park Memorial Institute 1640 (RPMI 1640) supplemented with 10% FBS. All mediums were supplemented with 1% AB-AM and all cells were kept at 37 °C with 5% CO2. The treatment with the compounds was done in the respective cell medium supplemented with 2% FBS and 24 h after platting the cells in the culture medium with 5% FBS to allow their adherence.
(§2) The Ishikawa, Hec50co, COV434, and HFF-1 cell lines were plated at a density of 5 × 10^4 cells/well in transparent 96-well plates. After 24 h, the cells were treated with Mito6_TPP, Mito6_picol., or Mito6_isoq. (0.01–100 μM) and incubated at 37 °C with 5% CO2 for 24, 48, or 72 h. […] The conditions of the methylthiazolyldiphenyl-tetrazolium bromide (MTT) assay were adapted from the work of Banerjee et al.. Briefly, MTT was added to a final concentration of 0.5 mg/mL, and the cells were incubated for 3 h at 37 °C with 5% CO2. After the 3 h, purple MTT formazan crystals were dissolved by agitation for 15 min in a solution of DMSO/isopropanol (ratio 3:1) and quantified spectrophotometrically at 540 nm. The neutral red (NR) assay conditions were based on the work developed by Repetto et al.. Briefly, after the incubation time, cells were incubated with NR at 40 μg/mL in an FBS-free cell medium for 3 h. The cells were then incubated with a solution of 50% ethanol (96% v/v), 49% deionized water, and 1% glacial acetic acid, with shaking for 15 min. The NR extracted from the cells was measured at 540 nm. The LDH cytotoxicity assay was not performed on the HFF-1 cells due to the lack of evidence of cell death at the concentrations tested. After the incubation time, this assay was performed using a Thermo Scientific Pierce LDH Cytotoxicity Assay Kit according to the manufacturer’s instructions. For all assays, the absorbance was read using a BioTek Synergy HTX Multi-Mode Microplate Reader equipped with BioTek Gen5 Data Collection and Analysis Software (BioTek Instruments, Winooski, VT, USA).
(§3) Data were evaluated using the one- or two-way analysis of variance (ANOVA) test followed by Bonferroni’s test for multiple comparisons. The data presented was expressed as mean ± SEM (Standard Error of the Mean) of a minimum of three and a maximum of seven independent experiments performed in triplicate. Values of p < 0.05 were considered statistically significant. Half of the maximal effective concentration (EC50) values were estimated by interpolation of dose-response curves and reported as a mean with a 95% confidence interval (CI 95%). All statistical analysis was performed using GraphPad Prism Software 8.0 (GraphPad Software, Inc., San Diego, CA, USA). […]

Ishikawa cells [2] = experiment: Neutral red (NR) cell viability assay; format: cell-based; settings: Homo sapiens
Procedure: as §1, §2, §3

HFF-1 cells [3] = experiment: Neutral red (NR) cell viability assay; format: cell-based; settings: Homo sapiens
Procedure: as §1, §2, §3

COV434 cells [4] = experiment: Neutral red (NR) cell viability assay; format: cell-based; settings: Homo sapiens
Procedure: as §1, §2, §3

Hec50co cells [5] = experiment: Cell morphology by Giemsa staining; format: cell-based, human; settings: 72 h, 5 μM Mito6_TPP, 20 μM Mito6_picol., 10 μM Mito6_isoq.
Procedure: Morphological changes in all cell lines were evaluated by phase-contrast microscopy (Eclipse TS100 Inverted Microscope, Nikon, Tokyo, Japan) and Giemsa staining. […] The cells were plated in 24-well plates with coverslips using the densities of 1 × 10^5 cells/well in Ishikawa and Hec50co and 2.5 × 10^5 cells/well in COV434 and HFF-1. After adherence, the cells were treated with Mito6_TPP (5 μM), Mito6_picol. (20 μM), or Mito6_isoq. (10 μM) and incubated at 37 °C with 5% CO2 for 72 h. For Giemsa staining, the cells were fixated with paraformaldehyde 4% in Phosphate Buffered Saline (PBS) for 15 min, stained with Giemsa solution for 30 min, mounted with DPX, and observed through bright field microscopy. For Höechst staining, the cells were incubated with 0.5 μg/mL Höechst 33342 in PBS for 20 min in the dark, mounted in Fluoroshield, and observed under a fluorescence microscope equipped with an excitation filter with maximum transmission at 360/400 nm. In both stainings, the cells were observed using the microscope Eclipse CI (Nikon, Japan) and the images were processed with Nikon NIS Elements Image Software (Nikon, Japan).

Hec50co cells [6] = experiment: MTT cell viability assay; format: cell-based; settings: Homo sapiens
Procedure: as §1, §2, §3

Ishikawa cells [7] = experiment: MTT cell viability assay; format: cell-based; settings: Homo sapiens
Procedure: as §1, §2, §3

HFF-1 cells [8] = experiment: MTT cell viability assay; format: cell-based; settings: Homo sapiens
Procedure: as §1, §2, §3

COV434 cells [9] = experiment: MTT cell viability assay; format: cell-based; settings: Homo sapiens
Procedure: as §1, §2, §3

[10] = 24 h, read-out: EC50 (decrease of viability), NR assay
[11] = 48 h, read-out: EC50 (decrease of viability), NR Assay
[12] = 72 h, read-out: EC50 (decrease of viability), NR assay
[13] = COV434, 24 hours of incubation, read-out: EC50 (decrease of viability), NR assay
[14] = COV434, 48 h of incubation, read-out: EC50 (decrease of viability), NR Assay
[15] = COV434, 72 hours of incubation, read-out: EC50 (decrease of viability), NR assay
[16] = 24 h, read-out: EC50 (decrease of viability), MTT assay
[17] = 48 h, read-out: EC50 (decrease of viability), MTT Assay
[18] = 72 h, read-out: EC50 (decrease of viability), MTT assay
[19] = COV434, 24 hours of incubation, read-out: EC50 (decrease of viability), MTT assay
[20] = COV434, 48 h of incubation, read-out: EC50 (decrease of viability), MTT Assay
[21] = COV434, 72 hours of incubation, read-out: EC50 (decrease of viability), MTT assay
[22] = Hec50co, 24 hours of incubation, read-out: EC50 (decrease of viability), NR assay
[23] = Hec50co, 48 h of incubation, read-out: EC50 (decrease of viability), NR Assay
[24] = Hec50co, 72 hours of incubation, read-out: EC50 (decrease of viability), NR assay
[25] = 24 hours of incubation, read-out: EC50 (decrease of viability), NR assay
[26] = 48 h of incubation, read-out: EC50 (decrease of viability), NR Assay
[27] = 72 hours of incubation, read-out: EC50 (decrease of viability), NR assay
[28] = HFF-1, 48 h of incubation, read-out: EC50 (decrease of viability), NR Assay
[29] = Hec50co, 24 hours of incubation, read-out: EC50 (decrease of viability), MTT assay
[30] = Hec50co, 48 h of incubation, read-out: EC50 (decrease of viability), MTT Assay
[31] = Hec50co, 72 hours of incubation, read-out: EC50 (decrease of viability), MTT assay
[32] = 24 hours of incubation, read-out: EC50 (decrease of viability), MTT assay
[33] = 48 h of incubation, read-out: EC50 (decrease of viability), MTT Assay
[34] = 72 hours of incubation, read-out: EC50 (decrease of viability), MTT assay
[35] = HFF-1, 48 h of incubation, read-out: EC50 (decrease of viability), MTT Assay

| Structure (SMILES) | pEC50 (COV434 cells [4]; [13]) | pEC50 (COV434 cells [4]; [14]) | pEC50 (COV434 cells [4]; [15]) | Cell morphology changes (Giemsa staining) (Hec50co cells [5]) | pEC50 (COV434 cells [9]; [19]) | pEC50 (COV434 cells [9]; [20]) | pEC50 (COV434 cells [9]; [21]) | pEC50 (Hec50co cells [1]; [22]) | pEC50 (Hec50co cells [1]; [23]) | pEC50 (Hec50co cells [1]; [24]) | pEC50 (Ishikawa cells [2]; [25]) | pEC50 (Ishikawa cells [2]; [26]) | pEC50 (Ishikawa cells [2]; [27]) | pEC50 (HFF-1 cells [3]; [28]) | pEC50 (Hec50co cells [6]; [29]) | pEC50 (Hec50co cells [6]; [30]) | pEC50 (Hec50co cells [6]; [31]) | pEC50 (Ishikawa cells [7]; [32]) | pEC50 (Ishikawa cells [7]; [33]) | pEC50 (Ishikawa cells [7]; [34]) | also measured |
| --- | --- | --- | --- | --- | --- | --- | --- | --- | --- | --- | --- | --- | --- | --- | --- | --- | --- | --- | --- | --- | --- |
| O=C(/C=C/c1ccc(O)c(O)c1)NCCCCCCCCCC[P+](c1ccccc1)(c1ccccc1)c1ccccc1 [Mito6_TPP] | 4.87 | 5.04 | 5.40 | altered cell shapes and indications of chromatin condensation | 5.33 | 5.63 | 6.24 |  |  |  |  |  |  |  |  |  |  |  |  |  | pEC50 (Hec50co cells [1]; [10]): 4.27; pEC50 (Hec50co cells [1]; [11]): 4.45; pEC50 (Hec50co cells [1]; [12]): 4.62; pEC50 (Ishikawa cells [2]; [10]): 4.48; pEC50 (Ishikawa cells [2]; [11]): 4.80; pEC50 (Ishikawa cells [2]; [12]): 4.95; pEC50 (HFF-1 cells [3]; HFF-1, 24 h, read-out: EC50 (decrease of viability), NR assay): 4.13; pEC50 (HFF-1 cells [3]; HFF-1, 48 h, read-out: EC50 (decrease of viability), NR Assay): 4.24; pEC50 (HFF-1 cells [3]; HFF-1, 72 h, read-out: EC50 (decrease of viability), NR assay): 4.35; pEC50 (Hec50co cells [6]; [16]): 5.11; pEC50 (Hec50co cells [6]; [17]): 5.73; pEC50 (Hec50co cells [6]; [18]): 6.07; pEC50 (Ishikawa cells [7]; [16]): 5.04; pEC50 (Ishikawa cells [7]; [17]): 5.61; pEC50 (Ishikawa cells [7]; [18]): 6.03; pEC50 (HFF-1 cells [8]; HFF-1, 24 h, read-out: EC50 (decrease of viability), MTT assay): < 4.00; pEC50 (HFF-1 cells [8]; HFF-1, 48 h, read-out: EC50 (decrease of viability), MTT Assay): 4.35; pEC50 (HFF-1 cells [8]; HFF-1, 72 h, read-out: EC50 (decrease of viability), MTT assay): 4.43 |
| O=C(/C=C/c1ccc(O)c(O)c1)NCCCCCCCCCC[n+]1ccc2ccccc2c1 [Mito6_isoq.] | 4.29 | 4.40 | 4.51 |  | 4.53 | 5.15 | 5.50 | < 4.00 | 3.82 | 4.06 | 4.26 | 4.43 | 4.54 | 4.01 | 4.72 | 5.02 | 5.18 | 4.53 | 4.81 | 5.15 | pEC50 (HFF-1 cells [3]; HFF-1, 24 hours of incubation, read-out: EC50 (decrease of viability), NR assay): < 4.00; pEC50 (HFF-1 cells [3]; HFF-1, 72 hours of incubation, read-out: EC50 (decrease of viability), NR assay): 4.16; pEC50 (HFF-1 cells [8]; [35]): < 4.00 |
| Cc1cc[n+](CCCCCCCCCCNC(=O)/C=C/c2ccc(O)c(O)c2)cc1 [Mito6_picol.] | 4.06 | 4.20 | 4.47 | did not induce any morphological changes | 4.27 | 4.80 | 5.18 | < 4.00 | 3.70 | 4.04 | < 4.00 | 4.07 | 4.23 | < 4.00 | 4.56 | 4.86 | 4.76 | 4.37 | 4.63 | 4.97 | pEC50 (HFF-1 cells [8]; [35]): < 4.00 |
